In the NIST ThermoML archive (doi:10.1016/j.jct.2016.01.006):
“And” between values parts separate entries of the source, which are not always exact repeats. Equal values may be shown once.

Details: Crystal, Calculated from knudsen effusion weight loss

CCOC(=O)c1cc2ccccc2[nH]1 [ethyl 1H-indole-2-carboxylate]
Details	vapor or sublimation pressure
326.18 K	7.9e-05 kPa and 7.4e-05 kPa
328.21 K	0.000101 kPa and 9.8e-05 kPa and 9.1e-05 kPa
330.12 K	0.000123 kPa and 0.000122 kPa and 0.000126 kPa
332.18 K	0.000155 kPa and 0.000154 kPa and 0.000157 kPa
334.22 K	0.000202 kPa and 0.000196 kPa and 0.000203 kPa
336.12 K	0.000256 kPa and 0.000249 kPa and 0.000248 kPa
338.18 K	0.000312 kPa and 0.000322 kPa
340.21 K	0.000399 kPa and 0.000394 kPa and 0.00041 kPa
342.12 K	0.000501 kPa and 0.000503 kPa and 0.000504 kPa
344.16 K	0.000627 kPa and 0.000614 kPa and 0.000659 kPa
346.18 K	0.000808 kPa and 0.000835 kPa and 0.000768 kPa
348.11 K	0.000988 kPa and 0.000995 kPa and 0.000981 kPa

COC(=O)c1c[nH]c2ccccc12 [methyl 1H-indole-3-carboxylate]
Details	vapor or sublimation pressure
353.17 K	0.000108 kPa and 9.8e-05 kPa and 9.7e-05 kPa
355.12 K	0.00013 kPa and 0.000127 kPa and 0.000122 kPa
357.1 K	0.000154 kPa and 0.000153 kPa and 0.000148 kPa
359.16 K	0.000179 kPa and 0.000181 kPa and 0.000189 kPa
361.11 K	0.000232 kPa and 0.000226 kPa and 0.000234 kPa
363.1 K	0.000283 kPa and 0.000285 kPa and 0.000284 kPa
365.16 K	0.000351 kPa and 0.000347 kPa and 0.000371 kPa
367.12 K	0.000439 kPa and 0.000427 kPa and 0.000452 kPa
369.1 K	0.000528 kPa and 0.000531 kPa and 0.000514 kPa
371.16 K	0.000637 kPa and 0.000644 kPa and 0.000707 kPa
373.09 K	0.000799 kPa and 0.000822 kPa and 0.000792 kPa
375.09 K	0.00096 kPa and 0.000992 kPa and 0.000977 kPa
